From patent publication EP0428132A1, “Pradimicin derivatives” (Bristol-Myers Squibb Company, priority 1989, dated 1991)
Values after ≈ are worked out from the molar mass of the structure shown.

Tests used:
[1] = tested on: Candida paratropicalis A25825; assay: In vitro antifungal activity, serial agar dilution method (Table 1a); assay type: cell-based; conditions: YM agar (pH 7.0, Difco); 30°C for 2 days (yeast) or 4 days (filamentous fungi); read-out: MICs, Candida paratropicalis A25825
Procedure: (§1) The inoculum size was adjusted to 10⁶ cells/ml, and a volume of approximately 0.003 ml of fungal suspension was applied to the surface of the antibiotic containing agar plates with a multiinoculator. After incubation, the lowest concentration of antibiotic causing virtually complete inhibition of fungal growth was determined as the minimum inhibitory concentration (MIC).

[2] = tested on: Candida tropicalis A25812; assay: as above; assay type: cell-based; conditions: A25812, YM agar (pH 7.0, Difco), 30°C for 2 days (yeast) or 4 days (filamentous fungi), read-out: MICs, Candida tropicalis A25812
Procedure: as §1

[3] = tested on: Candida pseudotropicalis A25802; assay: as above; assay type: cell-based; conditions: Kluyveromyces marxianus, YM agar (pH 7.0, Difco), 30°C for 2 days (yeast) or 4 days (filamentous fungi), read-out: MICs, Candida pseudotropicalis A25802
Procedure: as §1

[4] = tested on: Saccharomyces cerevisiae A25803; assay: as above; assay type: cell-based; conditions: YM agar (pH 7.0, Difco), 30°C for 2 days (yeast) or 4 days (filamentous fungi), read-out: MICs, Saccharomyces cerevisiae A25803
Procedure: as §1

[5] = tested on: Candida albicans A25578; assay: as above; assay type: cell-based; conditions: A25578, YM agar (pH 7.0, Difco), 30°C for 2 days (yeast) or 4 days (filamentous fungi), read-out: MICs, Candida albicans A25578
Procedure: as §1

[6] = tested on: Microsporum canis WW10218; assay: as above; assay type: cell-based; conditions: WW10218, pH 7, read-out: MICs, Microsporum canis WW10218
Procedure: as §1

[7] = tested on: Trichophyton mentagrophytes A26771; assay: as above; assay type: cell-based; conditions: A26771, YM agar (pH 7.0, Difco), 30°C for 2 days (yeast) or 4 days (filamentous fungi), read-out: MICs, Trichophyton mentagrophytes A26771
Procedure: as §1

[8] = tested on: Candida tropicalis A25809; assay: as above; assay type: cell-based; conditions: YM agar (pH 7.0, Difco), 30°C for 2 days (yeast) or 4 days (filamentous fungi), read-out: MICs, Candida tropicalis A25809
Procedure: as §1

[9] = tested on: Candida albicans A9540; assay: as above; assay type: cell-based; conditions: A9540, YM agar (pH 7.0, Difco), 30°C for 2 days (yeast) or 4 days (filamentous fungi), read-out: MICs, Candida albicans A9540
Procedure: as §1

[10] = tested on: Trichophyton rubrum A26761; assay: as above; assay type: cell-based; conditions: A26761, pH 7, read-out: MICs, Trichophyton rubrum A26761
Procedure: as §1

[11] = tested on: Cryptococcus neoformans A15053; assay: as above; assay type: cell-based; conditions: A15053, YM agar (pH 7.0, Difco), 30°C for 2 days (yeast) or 4 days (filamentous fungi), read-out: MICs, Cryptococcus neoformans A15053
Procedure: as §1

[12] = tested on: Microsporum gypseum WW1107; assay: as above; assay type: cell-based; conditions: Nannizzia gypsea, YM agar (pH 7.0, Difco), 30°C for 2 days (yeast) or 4 days (filamentous fungi), read-out: MICs, Microsporum gypseum WW1107
Procedure: as §1

[13] = Water solubility, protocol I (PBS, HPLC); assay type: physicochemical; conditions: Method I: PBS without CaCl₂ and MgCl₂.6H₂O
Procedure: The supernatant (2 µL) was analyzed by HPLC using the conditions specified for each compound in the Experimental Section. […] When not soluble, an additional amount of PBS (x µL) was added, sonicated, and centrifuged. When visibly soluble, the solution (2 µL) was injected to HPLC and the peak area was used for the known concentration of the sample.

[14] = tested on: FA21436; assay: In vitro antifungal activity, serial agar dilution method (Table 1); assay type: cell-based, Asoergukkys flavus
Procedure: as §1, with “(MIC). Table 1. [table]” for “(MIC).”

[15] = tested on: Aspergillus fumigatus IAM2530; assay: as above; assay type: cell-based; conditions: Sabouraud dextrose agar (pH 7.0), 28°C for 40 hours
Procedure: as §1, with “(MIC). Table 1. [table]” for “(MIC).”

[16] = tested on: Blastomyces dermatidis D40; assay: as above; assay type: cell-based
Procedure: as §1, with “(MIC). Table 1. [table]” for “(MIC).”

[17] = tested on: Petriellidium boydii IFO8078; assay: as above; assay type: cell-based; conditions: Sabouraud dextrose agar (pH 7.0), 28°C for 40 hours
Procedure: as §1, with “(MIC). Table 1. [table]” for “(MIC).”

[18] = tested on: Mucor spinosus IFO5317; assay: as above; assay type: cell-based; conditions: Sabouraud dextrose agar (pH 7.0), 28°C for 40 hours
Procedure: as §1, with “(MIC). Table 1. [table]” for “(MIC).”

[19] = tested on: Trichophyton mentagrophytes D155; assay: as above; assay type: cell-based; conditions: Sabouraud dextrose agar (pH 7.0), 28°C for 40 hours
Procedure: as §1, with “(MIC). Table 1. [table]” for “(MIC).”

[20] = tested on: Sprotricosis schenckii IFO8158; assay: as above; assay type: cell-based
Procedure: as §1, with “(MIC). Table 1. [table]” for “(MIC).”

[21] = tested on: Candida albicans IAM4888; assay: as above; assay type: cell-based; conditions: Sabouraud dextrose agar (pH 7.0), 28°C for 40 hours
Procedure: as §1, with “(MIC). Table 1. [table]” for “(MIC).”

[22] = tested on: Cryptococcus neoformans D49; assay: as above; assay type: cell-based
Procedure: as §1, with “(MIC). Table 1. [table]” for “(MIC).”

[23] = tested on: Trichophyton mentagrophytes #4329; assay: as above; assay type: cell-based; conditions: Sabouraud dextrose agar (pH 7.0), 28°C for 40 hours
Procedure: as §1, with “(MIC). Table 1. [table]” for “(MIC).”

[24] = tested on: Cryptococcus neoformans IAM4514; assay: as above; assay type: cell-based; conditions: Sabouraud dextrose agar (pH 7.0), 28°C for 40 hours
Procedure: as §1, with “(MIC). Table 1. [table]” for “(MIC).”

[25] = tested on: Candida albicans A9540; assay: as above; assay type: cell-based; conditions: Sabouraud dextrose agar (pH 7.0), 28°C for 40 hours
Procedure: as §1, with “(MIC). Table 1. [table]” for “(MIC).”

[26] = tested on: Aspergillus fumigatus IAM2034; assay: as above; assay type: cell-based; conditions: Sabouraud dextrose agar (pH 7.0), 28°C for 40 hours
Procedure: as §1, with “(MIC). Table 1. [table]” for “(MIC).”

[27] = tested on: Fusarium moniliforme A2284; assay: as above; assay type: cell-based; conditions: Sabouraud dextrose agar (pH 7.0), 28°C for 40 hours
Procedure: as §1, with “(MIC). Table 1. [table]” for “(MIC).”

[28] = Sabouraud dextrose agar (pH 7.0), 28°C for 40 hours

Compound	MIC [1] [µg/mL]	MIC [2] [µg/mL]	MIC [3] [µg/mL]	MIC [4] [µg/mL]	MIC [5] [µg/mL]	MIC [6] [µg/mL]	MIC [7] [µg/mL]	MIC [8] [µg/mL]	MIC [9] [µg/mL]	MIC [10] [µg/mL]	MIC [11] [µg/mL]	MIC [12] [µg/mL]	further results
COc1cc(O)c2c(c1)C(=O)c1c(cc3c(c1O)-c1c(cc(C)c(C(=O)N[C@H](C)C(=O)O)c1O)[C@H](O[C@@H]1O[C@H](C)[C@H](N(C)C(N)=O)[C@H](O)[C@H]1O)[C@H]3O)C2=O [Ex. 17, N-carbamyl pradimicin B]	6.3 (≈ 8.38 µM)	6.3 (≈ 8.38 µM)	1.6 (≈ 2.13 µM)	1.6 (≈ 2.13 µM)	3.2 (≈ 4.26 µM)	25 (≈ 33.3 µM)	25 (≈ 33.3 µM)	1.6 (≈ 2.13 µM)	6.3 (≈ 8.38 µM)	25 (≈ 33.3 µM)	6.3 (≈ 8.38 µM)	25 (≈ 33.3 µM)	
COc1cc(O)c2c(c1)C(=O)c1c(cc3c(c1O)-c1c(cc(C)c(C(=O)N[C@H](C)C(=O)O)c1O)[C@H](O[C@@H]1O[C@H](C)[C@H](N(C)C(=O)NS(=O)(=O)c4ccc(C)cc4)[C@H](O)[C@H]1O)[C@H]3O)C2=O [Ex. 19, N-(p-toluenesulfonylcarbamyl) pradimicin B]	25 (≈ 27.6 µM)	12.5 (≈ 13.8 µM)	3.2 (≈ 3.53 µM)	3.2 (≈ 3.53 µM)	12.5 (≈ 13.8 µM)	12.5 (≈ 13.8 µM)	50 (≈ 55.2 µM)	6.3 (≈ 6.95 µM)	12.5 (≈ 13.8 µM)	50 (≈ 55.2 µM)	6.3 (≈ 6.95 µM)	50 (≈ 55.2 µM)	
C=CCN(C)[C@@H]1[C@H](O[C@@H]2OC[C@@H](O)[C@H](O)[C@H]2O)[C@@H](O)[C@H](O[C@H]2c3cc(C)c(C(=O)N[C@H](C)C(=O)O)c(O)c3-c3c(cc4c(c3O)C(=O)c3cc(OC)cc(O)c3C4=O)[C@@H]2O)O[C@@H]1C [Ex. 22, N-(Allyl) pradimicin A]	> 50	> 50	3.2 (≈ 3.63 µM)		3.2 (≈ 3.63 µM)	1.6 (≈ 1.82 µM)	> 50		> 50		0.4 (≈ 0.454 µM)	> 50	solubility [13]: 5000 µg/mL (≈ 5680 µM)
COC(=O)/C=C/CN(C)[C@@H]1[C@H](O[C@@H]2OC[C@@H](O)[C@H](O)[C@H]2O)[C@@H](O)[C@H](O[C@H]2c3cc(C)c(C(=O)N[C@H](C)C(=O)O)c(O)c3-c3c(cc4c(c3O)C(=O)c3cc(OC)cc(O)c3C4=O)[C@@H]2O)O[C@@H]1C [compound 12, N-(trans-3-methoxycarbonyl-2-propenyl) pradimicin A]													MIC ([14]; 40 h, pH 7, read-out: MIC, Asoergukkys flavus FA21436): 25 µg/mL (≈ 26.6 µM); MIC ([15]; Aspergillus fumigatus, IAM2530): 12.5 µg/mL (≈ 13.3 µM); MIC ([16]; Blastomyces, D40, 40 h, pH 7, read-out: MIC, Blastomyces dermatidis D40): > 25 µg/mL; MIC ([17]; Scedosporium boydii, IFO8078): > 25 µg/mL; MIC ([18]; Mucor spinosus, IFO5317): > 25 µg/mL; MIC ([19]; Trichophyton mentagrophytes, D155): 12.5 µg/mL (≈ 13.3 µM); MIC ([20]; 40 h, pH 7, read-out: MIC, Sprotricosis schenckii IFO8158): 12.5 µg/mL (≈ 13.3 µM); MIC ([21]; Candida albicans, IAM4888): 25 µg/mL (≈ 26.6 µM); MIC ([22]; Cryptococcus neoformans, D49, 40 h, pH 7, read-out: MIC, Cryptococcus neoformans D49): 6.3 µg/mL (≈ 6.71 µM); MIC ([23]; Trichophyton mentagrophytes): 25 µg/mL (≈ 26.6 µM); MIC ([24]; Cryptococcus neoformans, IAM4514): 6.3 µg/mL (≈ 6.71 µM); MIC ([25]; Candida albicans, A9540): > 25 µg/mL; MIC ([26]; Aspergillus fumigatus, IAM2034): 12.5 µg/mL (≈ 13.3 µM); MIC ([27]; Fusarium verticillioides, A2284): > 25 µg/mL
N-(sodiosulfomethyl) pradimicin A [Ex. 8]													MIC, Asoergukkys flavus FA21436 [14, 28]: 6.3 µg/mL; MIC, Aspergillus fumigatus IAM2530 [15]: 1.6 µg/mL; MIC, Blastomyces dermatidis D40 [16, 28]: 1.6 µg/mL; MIC, Petriellidium boydii IFO8078 [17]: 6.3 µg/mL; MIC, Mucor spinosus IFO5317 [18]: > 50.0 µg/mL; Partial Inhibition, Mucor spinosus IFO5317 ([18]; value in parentheses = Partial Inhibition): 6.3 µg/mL; MIC, Trichophyton mentagrophytes D155 [19]: 6.3 µg/mL; MIC, Sprotricosis schenckii IFO8158 [20, 28]: 1.6 µg/mL; MIC, Candida albicans IAM4888 [21]: 3.1 µg/mL; MIC, Cryptococcus neoformans D49 [22, 28]: 0.8 µg/mL; MIC, Trichophyton mentagrophytes #4329 [23]: 3.1 µg/mL; MIC, Cryptococcus neoformans IAM4514 [24]: 0.8 µg/mL; MIC, Candida albicans A9540 [25]: 6.3 µg/mL; MIC, Aspergillus fumigatus IAM2034 [26]: 3.1 µg/mL; MIC, Fusarium moniliforme A2284 [27]: 3.1 µg/mL
